Experiments:
Format in all cases: cell-based
[1] = system: Ovarian adenocarcinoma SKOV3 cells; assay: SKOV3 cell death assay (MTT, 72 hours); conditions: Homo sapiens, SK-OV-3, compound alone
Experimental: Ovarian adenocarcinoma SKOV3 cells were cultured as monolayers in McCoy's 5a medium (HyClone) supplemented with 2.2 g/L sodium bicarbonate (Gibco), 10% FBS (HyClone) and 1% penicillin/streptomycin (HyClone). Cells were seeded in 96 well plates at 5000 cells/well. After 24 hours in culture, cells were treated with compound. Cells were incubated in the presence of compound for 72 hours. Metabolic viability of remaining cells was assessed by MTT (thiazolyl blue tetrazolium bromide, Sigma) assay.
(§1) EC50 values (50% cell survival in the presence of compound as compared to untreated controls) were calculated from survival curves using BioAssay software (CambridgeSoft, HCT116 and SKOV3 SAR) and GraphPad Prism (Graph Pad Software Inc., Synoviocyte SAR).

[2] = system: Colorectal carcinoma HCT116 cells; assay: HCT116 + ETR1 cell death assay (MTT, 72 hours); conditions: with HGS ETR1 40 ng/ml
Experimental: Colorectal carcinoma HCT116 cells were cultured as monolayers in 96 well plates at a density of 2000 cells per well in McCoy's 5a medium (HyClone) supplemented with 2.2 g/L sodium bicarbonate (Gibco), 10% FBS (HyClone) and 1% penecillin/streptomycin (HyClone). 24 hours later, triplicate wells were treated with HGS ETR1 (40 ng/ml) in combination with compound. Cells were incubated in the presence of compound and HGS agonistic Trail receptor antibody, ETR1 (Mapatumamab, 40 ng/ml) for 72 hours. Metabolic viability of remaining cells was assessed by MTT (thiazolyl blue tetrazolium bromide, Sigma) assay.
as §1

[3] = system: Rheumatoid arthritis human fibroblast-like synoviocytes (HFLS-RA); assay: Synoviocytes + Fas antibody cell survival assay (Cell Titer-Glo); conditions: with 300 ng/ml anti-human CD95 (Fas) antibody CH-11, 72 hours, read-out: EC50 synoviocyctes + FAS
Experimental: Rheumatoid arthritis human fibroblast-like synoviocytes (HFLS-RA, Cell Applications Inc.) were seeded in 96-well plates at 3000 cells per well in complete synoviocyte growth medium (Cell Applications Inc.) one day prior to treatment. Triplicate wells were treated for 72 hours compound in combination with 300 ng/ml anti-human CD95 (Fas) antibody (clone CH-11, Beckman Coulter/Immunotech). Cell survival was measured by Cell Titer-Glo Luminescent Assay (Promega).
as §1

Structure (SMILES)	EC50 [1]	EC50 [2]	EC50 [3]
CN[C@@H](C)C(=O)N[C@H](C(=O)N1CCC[C@H]1CN(CCc1ccccc1)C(=O)CNC(=O)c1ccc(C(=O)NCC(=O)N(CCc2ccccc2)C[C@@H]2CCCN2C(=O)[C@@H](NC(=O)[C@H](C)NC)C2CCCCC2)cc1)C1CCCCC1 [Compound 1]	< 100 nM	< 100 nM	
CN[C@@H](C)C(=O)N[C@H](C(=O)N1CCC[C@H]1CN(CCc1ccccc1)C(=O)CNC(=O)c1ccc2cc(C(=O)NCC(=O)N(CCc3ccccc3)C[C@@H]3CCCN3C(=O)[C@@H](NC(=O)[C@H](C)NC)C3CCCCC3)ccc2c1)C1CCCCC1 [Compound 3]	< 100 nM	< 100 nM	
CN[C@@H](C)C(=O)N[C@H](C(=O)N1CCC[C@H]1CN(CCc1ccccc1)C(=O)CNC(=O)C1CCC(C(=O)NCC(=O)N(CCc2ccccc2)C[C@@H]2CCCN2C(=O)[C@@H](NC(=O)[C@H](C)NC)C2CCCCC2)CC1)C1CCCCC1 (stereo partly shown) [Compound 4]	< 100 nM	< 100 nM	
CN[C@@H](C)C(=O)N[C@H](C(=O)N1CCC[C@H]1CN(CCc1ccc(F)cc1)C(=O)c1ccc(C(=O)N(CCc2ccc(F)cc2)C[C@@H]2CCCN2C(=O)[C@@H](NC(=O)[C@H](C)NC)C2CCCCC2)cc1)C1CCCCC1 [Compound 5]	< 100 nM	< 100 nM	
CN[C@@H](C)C(=O)N[C@H](C(=O)N1CCC[C@H]1CN(CCc1ccc(F)cc1)C(=O)CNC(=O)c1ccc(C(=O)NCC(=O)N(CCc2ccc(F)cc2)C[C@@H]2CCCN2C(=O)[C@@H](NC(=O)[C@H](C)NC)C2CCCCC2)cc1)C1CCCCC1 [Compound 7]	< 100 nM	< 100 nM	
CN[C@@H](C)C(=O)N[C@H](C(=O)N1CCC[C@H]1CN(CCc1ccc(F)cc1)C(=O)CNC(=O)c1ccc2cc(C(=O)NCC(=O)N(CCc3ccc(F)cc3)C[C@@H]3CCCN3C(=O)[C@@H](NC(=O)[C@H](C)NC)C3CCCCC3)ccc2c1)C1CCCCC1 [Compound 9]	< 100 nM	< 100 nM	
CN[C@@H](C)C(=O)N[C@H](C(=O)N1CCC[C@H]1CN(CCc1ccc(F)cc1)C(=O)CNC(=O)C1CCC(C(=O)NCC(=O)N(CCc2ccc(F)cc2)C[C@@H]2CCCN2C(=O)[C@@H](NC(=O)[C@H](C)NC)C2CCCCC2)CC1)C1CCCCC1 (stereo partly shown) [Compound 10]		< 100 nM	
CN[C@@H](C)C(=O)N[C@H](C(=O)N1CCC[C@H]1CN(CCc1ccc(F)cc1)C(=O)c1ccc2cc(C(=O)N(CCc3ccc(F)cc3)C[C@@H]3CCCN3C(=O)[C@@H](NC(=O)[C@H](C)NC)C3CCCCC3)ccc2c1)C1CCCCC1 [Compound 11]		< 100 nM	< 100 nM
CN[C@@H](C)C(=O)N[C@H](C(=O)N1CCC[C@H]1CN(CCc1ccccc1)C(=O)c1ccc2cc(C(=O)N(CCc3ccccc3)C[C@@H]3CCCN3C(=O)[C@@H](NC(=O)[C@H](C)NC)C3CCCCC3)ccc2c1)C1CCCCC1 [Compound 12]		< 100 nM	
CN[C@@H](C)C(=O)N[C@H](C(=O)N1CCC[C@H]1CN(CCc1ccc(OC)cc1)C(=O)c1ccc2cc(C(=O)N(CCc3ccc(OC)cc3)C[C@@H]3CCCN3C(=O)[C@@H](NC(=O)[C@H](C)NC)C3CCCCC3)ccc2c1)C1CCCCC1 [Compound 13]		> 100 nM	
CN[C@@H](C)C(=O)N[C@H](C(=O)N1CCC[C@H]1CN(CCc1ccc(OC)cc1)C(=O)CNC(=O)c1ccc(-c2ccc(C(=O)NCC(=O)N(CCc3ccc(OC)cc3)C[C@@H]3CCCN3C(=O)[C@@H](NC(=O)[C@H](C)NC)C3CCCCC3)cc2)cc1)C1CCCCC1 [Compound 14]		> 100 nM	
CN[C@@H](C)C(=O)N[C@H](C(=O)N1CCC[C@H]1CN(C(=O)CNC(=O)c1ccc(-c2ccc(C(=O)NCC(=O)N(C[C@@H]3CCCN3C(=O)[C@@H](NC(=O)[C@H](C)NC)C3CCCCC3)C3Cc4ccccc4C3)cc2)cc1)C1Cc2ccccc2C1)C1CCCCC1 [Compound 15]		< 100 nM	
CN[C@@H](C)C(=O)N[C@H](C(=O)N1CCC[C@H]1CN(CCc1ccccc1)C(=O)c1ccc2cc(C(=O)N(CCc3ccccc3)C[C@@H]3CCCN3C(=O)[C@@H](NC(=O)[C@H](C)NC)C3CCCC3)ccc2c1)C1CCCC1 [Compound 16]	< 100 nM	< 100 nM	
CN[C@@H](C)C(=O)N[C@H](C(=O)N1CCC[C@H]1CN(CCc1ccccc1)C(=O)c1ccc2cc(C(=O)N(CCc3ccccc3)C[C@@H]3CCCN3C(=O)[C@@H](NC(=O)[C@H](C)NC)c3ccccc3)ccc2c1)c1ccccc1 [Compound 24]		< 100 nM	
CN[C@@H](C)C(=O)N[C@H](C(=O)N1CCC[C@H]1CN(CCc1ccccc1)C(=O)c1ccc(-c2ccc(C(=O)N(CCc3ccccc3)C[C@@H]3CCCN3C(=O)[C@@H](NC(=O)[C@H](C)NC)c3ccccc3)cc2)cc1)c1ccccc1 [Compound 25]		< 100 nM	
CN[C@@H](C)C(=O)N[C@H](C(=O)N1CCC[C@H]1CN(CCc1ccccc1)C(=O)c1ccc2cc(C(=O)N(CCc3ccccc3)C[C@@H]3CCCN3C(=O)[C@@H](NC(=O)[C@H](C)NC)C3CCOCC3)ccc2c1)C1CCOCC1 [Compound 26]		< 100 nM	
CN[C@@H](C)C(=O)N[C@H](C(=O)N1CCC[C@H]1CN(CCc1ccccc1)C(=O)c1ccc(-c2ccc(C(=O)N(CCc3ccccc3)C[C@@H]3CCCN3C(=O)[C@@H](NC(=O)[C@H](C)NC)C3CCOCC3)cc2)cc1)C1CCOCC1 [Compound 27]		< 100 nM	
CN[C@@H](C)C(=O)N[C@H](C(=O)N1CCC[C@H]1CN(CCc1ccc(F)cc1)S(=O)(=O)c1ccc2cc(S(=O)(=O)N(CCc3ccc(F)cc3)C[C@@H]3CCCN3C(=O)[C@@H](NC(=O)[C@H](C)NC)C3CCCCC3)ccc2c1)C1CCCCC1 [Compound 28]		< 100 nM	
CN[C@@H](C)C(=O)N[C@H](C(=O)N1CCC[C@H]1CN(CCc1ccccc1)C(=O)CNC(=O)c1ccc(-c2ccc(C(=O)NCC(=O)N(CCc3ccccc3)C[C@@H]3CCCN3C(=O)[C@@H](NC(=O)[C@H](C)NC)C3CCCCC3)cn2)nc1)C1CCCCC1 [Compound 29]		< 100 nM	
CN[C@@H](C)C(=O)N[C@H](C(=O)N1CCC[C@H]1CN(CCc1ccccc1)C(=O)c1ccc(-c2ccc(C(=O)N(CCc3ccccc3)C[C@@H]3CCCN3C(=O)[C@@H](NC(=O)[C@H](C)NC)C3CCCCC3)cn2)nc1)C1CCCCC1 [Compound 30]		< 100 nM	
CN[C@@H](C)C(=O)N[C@H](C(=O)N1CCC[C@H]1CN(CCc1ccccc1)C(=O)[C@@H](C)NC(=O)c1ccc(-c2ccc(C(=O)N[C@H](C)C(=O)N(CCc3ccccc3)C[C@@H]3CCCN3C(=O)[C@@H](NC(=O)[C@H](C)NC)C3CCCCC3)cc2)cc1)C1CCCCC1 [Compound 31]		< 100 nM	
CN[C@@H](C)C(=O)N[C@H](C(=O)N1CCC[C@H]1CN(CCc1ccccc1)C(=O)CN(C)C(=O)c1ccc(-c2ccc(C(=O)N(C)CC(=O)N(CCc3ccccc3)C[C@@H]3CCCN3C(=O)[C@@H](NC(=O)[C@H](C)NC)C3CCCCC3)cc2)cc1)C1CCCCC1 [Compound 32]		< 100 nM	
CN[C@@H](C)C(=O)N[C@H](C(=O)N1CCC[C@H]1CN(CCc1ccccc1)C(=O)[C@H](C)NC(=O)c1ccc(-c2ccc(C(=O)N[C@@H](C)C(=O)N(CCc3ccccc3)C[C@@H]3CCCN3C(=O)[C@@H](NC(=O)[C@H](C)NC)C3CCCCC3)cc2)cc1)C1CCCCC1 [Compound 33]		< 100 nM	
CN[C@@H](C)C(=O)N[C@H](C(=O)N1CCC[C@H]1CN(CCc1ccccc1)C(=O)c1csc(-c2ccc(-c3nc(C(=O)N(CCc4ccccc4)C[C@@H]4CCCN4C(=O)[C@@H](NC(=O)[C@H](C)NC)C4CCCCC4)cs3)cc2)n1)C1CCCCC1 [Compound 34]		< 100 nM	
CN[C@@H](C)C(=O)N[C@H](C(=O)N1CCC[C@H]1CN(CCc1ccccc1)C(=O)c1csc(-c2ccc(-c3ccc(-c4nc(C(=O)N(CCc5ccccc5)C[C@@H]5CCCN5C(=O)[C@@H](NC(=O)[C@H](C)NC)C5CCCCC5)cs4)cc3)cc2)n1)C1CCCCC1 [Compound 35]		< 100 nM	
CN[C@H](C(=O)N[C@H](C(=O)N1CCC[C@H]1CN(CCc1ccccc1)C(=O)c1ccc(-c2ccc(C(=O)N(CCc3ccccc3)C[C@@H]3CCCN3C(=O)[C@@H](NC(=O)[C@@H](NC)C3CC3)C3CCCCC3)cc2)cc1)C1CCCCC1)C1CC1 [Compound 36]		< 100 nM	
CCN[C@@H](C)C(=O)N[C@H](C(=O)N1CCC[C@H]1CN(CCc1ccccc1)C(=O)c1ccc(-c2ccc(C(=O)N(CCc3ccccc3)C[C@@H]3CCCN3C(=O)[C@@H](NC(=O)[C@H](C)NCC)C3CCCCC3)cc2)cc1)C1CCCCC1 [Compound 37]		< 100 nM	
CCCN[C@@H](C)C(=O)N[C@H](C(=O)N1CCC[C@H]1CN(CCc1ccccc1)C(=O)c1ccc(-c2ccc(C(=O)N(CCc3ccccc3)C[C@@H]3CCCN3C(=O)[C@@H](NC(=O)[C@H](C)NCCC)C3CCCCC3)cc2)cc1)C1CCCCC1 [Compound 38]		< 100 nM	
CC[C@H](NC)C(=O)N[C@H](C(=O)N1CCC[C@H]1CN(CCc1ccccc1)C(=O)c1ccc(-c2ccc(C(=O)N(CCc3ccccc3)C[C@@H]3CCCN3C(=O)[C@@H](NC(=O)[C@H](CC)NC)C3CCCCC3)cc2)cc1)C1CCCCC1 [Compound 39]		< 100 nM	
